Assays:
TLR7 [1] = target: T1, TLR7 (Homo sapiens, UniProt Q9NYK1); assay: Human TLR7 reporter gene agonistic activity assay; format: cell-based; parameters: host or cells: HEK293 (TLR7/NF-κB/SEAPorter)
T1 sequence (Q9NYK1 27-1049): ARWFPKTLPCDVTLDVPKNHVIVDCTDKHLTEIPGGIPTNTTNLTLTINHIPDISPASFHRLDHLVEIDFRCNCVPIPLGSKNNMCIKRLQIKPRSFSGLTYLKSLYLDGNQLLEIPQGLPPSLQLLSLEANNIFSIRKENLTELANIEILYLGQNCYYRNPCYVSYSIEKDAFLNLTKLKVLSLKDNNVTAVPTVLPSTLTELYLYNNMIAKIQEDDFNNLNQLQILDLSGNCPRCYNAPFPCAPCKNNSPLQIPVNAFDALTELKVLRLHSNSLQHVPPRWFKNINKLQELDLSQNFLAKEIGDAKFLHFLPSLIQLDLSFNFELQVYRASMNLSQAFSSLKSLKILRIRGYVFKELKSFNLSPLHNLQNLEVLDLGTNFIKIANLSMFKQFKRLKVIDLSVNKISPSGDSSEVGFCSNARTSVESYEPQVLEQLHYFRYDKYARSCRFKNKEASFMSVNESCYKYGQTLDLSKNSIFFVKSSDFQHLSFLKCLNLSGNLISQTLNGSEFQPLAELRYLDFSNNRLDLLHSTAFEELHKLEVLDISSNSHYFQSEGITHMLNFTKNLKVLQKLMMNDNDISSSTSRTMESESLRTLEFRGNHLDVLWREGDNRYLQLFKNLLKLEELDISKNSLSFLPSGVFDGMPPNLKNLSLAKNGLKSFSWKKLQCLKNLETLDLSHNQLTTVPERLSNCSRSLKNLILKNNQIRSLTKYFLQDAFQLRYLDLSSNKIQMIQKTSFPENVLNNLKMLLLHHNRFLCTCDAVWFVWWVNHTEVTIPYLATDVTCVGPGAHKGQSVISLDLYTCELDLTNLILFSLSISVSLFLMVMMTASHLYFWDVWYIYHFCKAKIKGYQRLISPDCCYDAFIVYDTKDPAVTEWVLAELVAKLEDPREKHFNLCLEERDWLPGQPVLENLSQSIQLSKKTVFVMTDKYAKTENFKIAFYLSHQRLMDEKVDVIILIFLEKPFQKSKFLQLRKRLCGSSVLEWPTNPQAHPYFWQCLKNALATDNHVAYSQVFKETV
Experimental: Compounds were dissolved in dimethyl sulfoxide. Before stimulation with compound, Human TLR7 reporter cell line (Novus Biological) was seeded in 96-well microtiter plate (AGC techno glass) at 5 × 10^4 cells/well in DMEM (GIBCO) with 10% fetal bovine serum (GIBCO), and 10 ug/ml Blastcidin S HCl (GIBCO) and incubated at 37 °C in 5% CO2. The plates were incubated over-night and then stimulated with various concentrations of compound and R848. The plates were then incubated an additional 20 ± 1 h at 37 °C in 5% CO2 and then the secreted embryonic alkaline phosphatase (SEAP) activity was measured as activation of human TLR7. The SEAP activity was evaluated as follows: pNPP (Invitrogen, USA) was added to the incubated sample (50 μl/well); after 15 min, 4 M sodium hydroxide solution (nacalai tesque, Japan) was added thereto (50 μl/well) to quench the reaction; and the absorbance of each sample was measured at 405 nm with microplate reader SpectraMax M4 (Molecular Devices, USA).

TLR7 [2] = assay: Glutaraldehyde crosslinking assay of ligand-induced TLR7 dimerization; format: biochemical, Monkey (Macaca mulatta)
Experimental: The recombinant TLR7 proteins expressed in Drosophila S2 cells (Thermo Fisher Scientific) using Monkey (Macaca mulatta) TLR7 extracellular domain expression construct with N167Q, N399Q, N488Q and N799Q mutations and cleavable Z-loop and C-terminal protein A tag were prepared and were stored in a buffer containing 10 mM Tris-HCl pH 7.5 and 150 mM NaCl at concentrations of 10–15 mg ml^−1. Briefly, the purification steps included IgG affinity purification, the Z-loop and the protein A tag cleavage, and gel-filtration chromatography. Glycan-trimmed TLR7 proteins, expressed in the presence of 1.5 mg l^−1 kifunensine (Glycosyn) and treated by Endo Hf (New England Biolabs) were used for crystallization. Glycan-untrimmed proteins were used in ITC analysis, crosslinking assay, negative-staining EM and cryo-EM (200 kV microscopes) analyses. Glycan-trimmed TLR7 proteins with partially-uncleaved protein A tag were used for cryo-EM analysis using Tatan Krios (Supplementary Fig. 11).
For glutaraldehyde crosslinking assay (Fig. 2b), proteins were buffer exchanged into a buffer containing 10 mM HEPES-NaOH, pH 8.0, 150 mM NaCl and were concentrated to ~13 mg/ml using Amicon Ultra devices (Merck). Protein concentrations were adjusted to 25 µM using buffers containing 10 mM HEPES-NaOH, pH 7.0, 150 mM NaCl (for neutral condition) or 50 mM citrate-NaOH pH 5.0, 150 mM NaCl (for acidic condition). Cpd-3, Cpd-6 or Cpd-7 were added to final concentrations of 100 or 1000 µM. The reactions were started by adding glutaraldehyde (Wako) to a final concentration of 5 mM (for neutral condition) or 20 mM (for acidic condition), incubated at ambient temperature for 25 min and quenched by adding Tris-HCl pH 7.5 to a final concentration of 100 mM. Crosslinked samples were analyzed by non-reducing SDS-PAGE. Quantitative analysis of the SDS-PAGE gel image was performed with Image-J.

[3] = pH 5.0, ligand + (100 or 1000 µM used)
[4] = pH 5.0, ligand ++ (100 or 1000 µM used)
[5] = pH 7.0, ligand + (100 or 1000 µM used)
[6] = pH 7.0, ligand ++ (100 or 1000 µM used)

| activation of human TLR7, reporter signal (TLR7 [1]; compound 0.001 nM (as headed)) | activation of human TLR7, reporter signal (TLR7 [1]; compound 0.003 nM (as headed)) | activation of human TLR7, reporter signal (TLR7 [1]; compound 0.01 nM (as headed)) | activation of human TLR7, reporter signal (TLR7 [1]; compound 0.03 nM (as headed)) | activation of human TLR7, reporter signal (TLR7 [1]; compound 0.1 nM (as headed)) | activation of human TLR7, reporter signal (TLR7 [1]; compound 0.3 nM (as headed)) | activation of human TLR7, reporter signal (TLR7 [1]; compound 1 nM (as headed)) | activation of human TLR7, reporter signal (TLR7 [1]; compound 3 nM (as headed)) | activation of human TLR7, reporter signal (TLR7 [1]; compound 10 nM (as headed)) | activation of human TLR7, reporter signal (TLR7 [1]; compound 30 nM (as headed)) | activation of human TLR7, reporter signal (TLR7 [1]; compound 100 nM (as headed)) | Structure (SMILES) | ligand-induced TLR7 dimerization (TLR7 [2]; neutral or acidic pH) | Band intensity Dimer (TLR7 [2]; [3]) | Band intensity Monomer (TLR7 [2]; [3]) | Band intensity Dimer (TLR7 [2]; [4]) | Band intensity Monomer (TLR7 [2]; [4]) | Band intensity Dimer (TLR7 [2]; [5]) | Band intensity Monomer (TLR7 [2]; [5]) | Band intensity Dimer (TLR7 [2]; [6]) | Band intensity Monomer (TLR7 [2]; [6]) |
| --- | --- | --- | --- | --- | --- | --- | --- | --- | --- | --- | --- | --- | --- | --- | --- | --- | --- | --- | --- | --- |
| -0.0355 | -0.0898 | -0.0215 | 0.2447 | 1.76 | 3.124 | 3.25 | 3.172 | 3.25 | 3.234 | 3.25 | CCOCc1nc2c(N)nc3ccccc3c2n1CC(C)(C)O [R848, reference compound] | – | – | – | – | – | – | – | – | – |
| – | – | – | – | – | – | – | – | – | – | – | COCCOc1nc(N)c2[nH]c(=O)n(Cc3cccnc3)c2n1 [Cpd-3] | induced almost complete dimerization under both neutral and acidic conditions | 16031.2 | 5165.8 | 16425.6 | 4634.68 | 17958.5 | 7371.24 | 17537.6 | 7105.24 |
